Results published in patent US12122778B2, “Activating pyruvate kinase R” (Novo Nordisk Health Care AG, priority 2018, dated 2024).

Legend:
PKR(G332S) = PKR(G332S) (Homo sapiens, UniProt P30613, G332S); experiment: Luminescence Biochemical Assay (Kinase Glo Plus), PKR G332S mutant; settings: with FBP; for activation at 1.54 µM: 1.54 μM compound, read-out: AC50 LUM KGP FBP % Fold@1.54 μM mean; for AC50: read-out: AC50 LUM KGP FBP AC50 μM gmean (column A); for Emax: read-out: AC50 LUM KGP FBP MAX % FOLD mean
Procedure: In some embodiments, a PKR Activating Compound can have: (1) an AC50 value of less than 0.1 μM (e.g., compounds with AC50 values of “+++” in Table 13), 0.1-1.0 μM (e.g., compounds with AC50 values of “++” in Table 13), or 1.01-40 μM (e.g., compounds with AC50 values of “+” in Table 13); (2) a MAX % Fold of 75%-250%, 250-500%, or 75%-500%; and/or (3) a % Fold@1.54 μM of 75%-250%, 250-500%, or 75%-500%. In some embodiments, a PKR Activating Compound has (1) an AC50 value of less than 1.0 μM; (2) a MAX % Fold of 75%-500%; and/or (3) a % Fold@1.54 μM of 75%-500%.
The phosphorylation of Adenosine-5′-diphosphate (ADP) by various mutants of PKR was determined by the Kinase Glo Plus Assay (Promega) in the presence or absence of FBP [D-Fructose-1,6-diphosphate; BOC Sciences, CAS: 81028-91-3] as follows. Unless otherwise indicated, all reagents were purchased from Sigma-Aldrich. All reagents were prepared in buffer containing 50 mM Tris-HCl, 100 mM KCl, 5 mM MgCl2, and 0.01% Triton X100, 0.03% BSA, and 1 mM DTT. Enzyme and PEP [Phospho(enol) pyruvic acid] were added at 2× to all wells of an assay-ready plate containing serial dilutions of test compounds or DMSO vehicle. Final enzyme concentrations for PKR(wt), PKR(R510Q), and PKR(G332S) were 0.8 nM, 0.8 nM, and 10 nM respectively. Final PEP concentration was 100 μM. The Enzyme/PEP mixture was incubated with compounds for 30 minutes at RT before the assay was initiated with the addition of 2×ADP [Adenosine-5′-diphosphate] and KinaseGloPlus. Final concentration of ADP was 100 μM. […] For assays containing FBP, that reagent is added at 30 μM upon reaction initiation. Reactions were allowed to progress for 45 minutes at RT until luminescence was recorded by the BMG PHERAstar FS Multilabel Reader. All compounds were tested in triplicate at concentrations ranging from 42.5 μM to 2.2 nM in 0.83% DMSO.
Luminescence values were converted to % Fold increase by normalizing to the average of the DMSO control and multiplying by 100. Max, min, slope and AC50 were determined by the standard four parameter fit algorithm of ActivityBase XE Runner. Compounds were evaluated with three parameters—AC50, MAX % Fold, and % Fold@1.54 μM (FIG. 1). The AC50 value for a compound is the concentration (μM) corresponding to the midway between the maximum and minimum values of the four parameter logistic curve fit (i.e., at which the % fold increase along the four parameter logistic curve fit is halfway between MAX % Fold and MIN % Fold (% Fold Midpoint)), MAX % Fold is the highest fold increase observed at any concentration of compound, and % Fold@1.54 μM is the fold increase at a compound concentration of 1.54 μM. The parameter % Fold@1.54 μM was selected to capture elements of both the AC50 and MAX % Fold and to provide a ranking based on both potency and effect. The compound concentration of 1.54 μM was chosen as one that can optimally differentiate the set of compounds based on the range of activities observed.
As set forth in Table 13 below, AC50 values (columns A, D, G) are defined as follows: ≤0.1 μM (+++); >0.1 μM and ≤1.0 μM (++); >1.0 μM and ≤40 μM (+); >40 μM (0). Max % FOLD values (columns B, E, H) are defined as follows: ≤75% (+); >75% and ≤250% (++); >250% and ≤500% (+++). % Fold@1.54 μM values (columns C, F, J) are defined as follows: ≤75% (+); >75% and ≤250% (++); >250% and ≤50000 (+++).

PKR(R510Q) = PKR(R510Q) (Homo sapiens, UniProt P30613, R510Q); experiment: Luminescence Biochemical Assay (Kinase Glo Plus), PKR R510Q mutant; settings: without FBP; for activation at 1.54 µM: 1.54 μM compound, read-out: AC50 LUM KGP woFBP % Fold@1.54 μM mean; for AC50: read-out: AC50 LUM KGP woFBP AC50 μM gmean; for Emax: read-out: AC50 LUM KGP woFBP MAX % FOLD mean
PKR(wt) = PKR(wt) (Homo sapiens, UniProt P30613); experiment: Luminescence Biochemical Assay (Kinase Glo Plus), wild type PKR; settings: without FBP; for activation at 1.54 µM: 1.54 μM compound, read-out: AC50 LUM KGP woFBP % Fold@1.54 μM mean; for AC50: read-out: AC50 LUM KGP woFBP AC50 μM gmean; for Emax: read-out: AC50 LUM KGP woFBP MAX % FOLD mean
PKR(wt), sequence (P30613 whole entry): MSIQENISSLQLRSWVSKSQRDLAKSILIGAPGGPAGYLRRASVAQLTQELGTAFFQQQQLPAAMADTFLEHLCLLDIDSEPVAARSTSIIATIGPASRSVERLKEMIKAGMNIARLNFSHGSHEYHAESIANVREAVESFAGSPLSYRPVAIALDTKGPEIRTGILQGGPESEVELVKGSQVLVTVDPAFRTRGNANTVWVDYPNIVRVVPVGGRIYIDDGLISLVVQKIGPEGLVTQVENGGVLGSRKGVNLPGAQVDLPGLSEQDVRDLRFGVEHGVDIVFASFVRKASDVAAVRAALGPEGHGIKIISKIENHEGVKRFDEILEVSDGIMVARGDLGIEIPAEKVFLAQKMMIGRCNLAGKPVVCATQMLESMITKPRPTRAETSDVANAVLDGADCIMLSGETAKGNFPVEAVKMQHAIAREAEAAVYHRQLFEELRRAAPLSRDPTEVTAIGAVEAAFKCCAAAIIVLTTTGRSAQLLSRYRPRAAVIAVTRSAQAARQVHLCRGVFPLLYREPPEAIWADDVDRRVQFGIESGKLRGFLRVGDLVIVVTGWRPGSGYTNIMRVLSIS

PKR(G332S), sequence (P30613 whole entry G332S): as the sequence (P30613 whole entry) above, with G332S counted along it
PKR(R510Q), sequence (P30613 whole entry R510Q): as the sequence (P30613 whole entry) above, with R510Q counted along it

Structure (SMILES)	activation at 1.54 µM (PKR(G332S))	AC50 (PKR(G332S))	Emax (PKR(G332S))	activation at 1.54 µM (PKR(R510Q))	AC50 (PKR(R510Q))	Emax (PKR(R510Q))	activation at 1.54 µM (PKR(wt))	AC50 (PKR(wt))	Emax (PKR(wt))
O=C(NCc1ccc(F)cc1)N1CC2=C(C1)CN(S(=O)(=O)c1ccc(OC(F)F)cc1)C2 [Example 21-13, 5-[4-(Difluoromethoxy)benzenesulfonyl]-N-[(4-fluorophenyl)methyl]-1H,2H,3H,4H,5H,6H-pyrrolo[3,4-c]pyrrole-2-carboxamide]	75 to 250%	≤ 0.1 µM	75 to 250%	250 to 50000%	0.1 to 1 µM	250 to 500%	250 to 50000%	0.1 to 1 µM	250 to 500%
O=C(Cc1ccc[nH]1)N1CC2=C(C1)CN(S(=O)(=O)c1cccnc1)C2 [Example 18-73, 1-[5-(Pyridine-3-sulfonyl)-1H,2H,3H,4H,5H,6H-pyrrolo[3,4-c]pyrrol-2-yl]-2-(1H-pyrrol-2-yl)ethan-1-one]	75 to 250%	1 to 40 µM	75 to 250%	75 to 250%	1 to 40 µM	75 to 250%	75 to 250%	1 to 40 µM	75 to 250%
O=C(NCc1cccc(F)c1)N1CC2=C(C1)CN(S(=O)(=O)c1ccc(OC(F)F)cc1)C2 [Example 21-14, 5-[4-(Difluoromethoxy)benzenesulfonyl]-N-[(3-fluorophenyl)methyl]-1H,2H,3H,4H,5H,6H-pyrrolo[3,4-c]pyrrole-2-carboxamide]	75 to 250%	0.1 to 1 µM	75 to 250%	250 to 50000%	1 to 40 µM	250 to 500%	250 to 50000%	0.1 to 1 µM	250 to 500%
CN1CCOc2ccc(S(=O)(=O)N3CC4=C(CN(C(=O)[C@H]5CCCO5)C4)C3)cc21 [Example 18-2, 4-Methyl-6-({5-[(2R)-oxolane-2-carbonyl]-1H,2H,3H,4H,5H,6H-pyrrolo[3,4-c]pyrrol-2-yl}sulfonyl)-3,4-dihydro-2H-1,4-benzoxazine]	75 to 250%	1 to 40 µM	75 to 250%	75 to 250%	1 to 40 µM	75 to 250%	75 to 250%	0.1 to 1 µM	75 to 250%
O=C(NCc1ccccc1F)N1CC2=C(C1)CN(S(=O)(=O)c1cccnc1)C2 [Example 21-37, N-[(2-fluorophenyl)methyl]-5-(pyridine-3-sulfonyl)-1H,2H,3H,4H,5H,6H-pyrrolo[3,4-c]pyrrole-2-carboxamide]	75 to 250%	0.1 to 1 µM	75 to 250%	250 to 50000%	0.1 to 1 µM	250 to 500%	75 to 250%	0.1 to 1 µM	250 to 500%
O=C(Cc1ccc(F)cc1F)N1CC2=C(C1)CN(S(=O)(=O)c1cccnc1)C2 [Example 18-66, 2-(2,4-Difluorophenyl)-1-[5-(pyridine-3-sulfonyl)-1H,2H,3H,4H,5H,6H-pyrrolo[3,4-c]pyrrol-2-yl]ethan-1-one]	75 to 250%	1 to 40 µM	75 to 250%	75 to 250%	1 to 40 µM	250 to 500%	75 to 250%	1 to 40 µM	250 to 500%
O=C([C@H]1CCCO1)N1CC2=C(C1)CN(S(=O)(=O)c1ccccn1)C2 [Example 18-60, 2-({5-[(2R)-oxolane-2-carbonyl]-1H,2H,3H,4H,5H,6H-pyrrolo[3,4-c]pyrrol-2-yl}sulfonyl)pyridine]	75 to 250%	1 to 40 µM	75 to 250%	75 to 250%	1 to 40 µM	250 to 500%	75 to 250%	1 to 40 µM	250 to 500%
Cc1nn(C)c(Cl)c1S(=O)(=O)N1CC2=C(CN(C(=O)[C@H](O)c3ccccc3)C2)C1 [Example 18-43, (2R)-1-{5-[(5-chloro-1,3-dimethyl-1H-pyrazol-4-yl)sulfonyl]-1H,2H,3H,4H,5H,6H-pyrrolo[3,4-c]pyrrol-2-yl}-2-hydroxy-2-phenylethan-1-one]	75 to 250%	1 to 40 µM	75 to 250%	75 to 250%	1 to 40 µM	75 to 250%	75 to 250%	1 to 40 µM	75 to 250%
O=C(C1CCOCC1)N1CC2=C(C1)CN(S(=O)(=O)c1ccc3c(c1)NCCO3)C2 [Example 7-1, (5-((3,4-dihydro-2H-benzo[b][1,4]oxazin-6-yl)sulfonyl)-3,4,5,6-tetrahydropyrrolo[3,4-c]pyrrol-2(1H)-yl)(tetrahydro-2H-pyran-4-yl)methanone]	75 to 250%	0.1 to 1 µM	75 to 250%	75 to 250%	1 to 40 µM	250 to 500%	75 to 250%	0.1 to 1 µM	250 to 500%
O=C([C@H](O)c1ccc2c(c1)NCCO2)N1CC2=C(C1)CN(S(=O)(=O)c1ccc(OC(F)F)cc1)C2 (single isomer, unassigned) [Example 9-4]	75 to 250%	0.1 to 1 µM	75 to 250%	75 to 250%	1 to 40 µM	250 to 500%	75 to 250%	1 to 40 µM	250 to 500%
O=C(Cc1ccccn1)N1CC2=C(C1)CN(S(=O)(=O)c1ccc(OC(F)F)cc1)C2 [Example 8-1, 1-(5-[[4-(difluoromethoxy)benzene]sulfonyl]-1H,2H,3H,4H,5H,6H-pyrrolo[3,4-c]pyrrol-2-yl)-2-(pyridin-2-yl)ethan-1-one]	75 to 250%	≤ 0.1 µM	75 to 250%	250 to 50000%	0.1 to 1 µM	250 to 500%	250 to 50000%	0.1 to 1 µM	250 to 500%
COc1ccc(CNC(=O)N2CC3=C(C2)CN(S(=O)(=O)c2ccc4ncsc4c2)C3)cc1 [Example 21-16, 5-(1,3-Benzothiazole-6-sulfonyl)-N-[(4-methoxyphenyl)methyl]-1H,2H,3H,4H,5H,6H-pyrrolo[3,4-c]pyrrole-2-carboxamide]	75 to 250%	≤ 0.1 µM	75 to 250%	250 to 50000%	0.1 to 1 µM	250 to 500%	250 to 50000%	≤ 0.1 µM	250 to 500%
COc1ccccc1CNC(=O)N1CC2=C(C1)CN(S(=O)(=O)c1cccc3nonc13)C2 [Example 20-19, 5-(2,1,3-Benzoxadiazole-4-sulfonyl)-N-[(2-methoxyphenyl)methyl]-1H,2H,3H,4H,5H,6H-pyrrolo[3,4-c]pyrrole-2-carboxamide]	75 to 250%	1 to 40 µM	75 to 250%	75 to 250%	0.1 to 1 µM	250 to 500%			
